One assay concerns the target SRPK1 (Homo sapiens, UniProt Q96SB4). Briefly: In vitro SRPK1 assay (Kinase-Glo). Type of assay: biochemical. On the technique in general: Kinase-Glo measures the ATP left after a reaction by luminescence.
For another assay, the target named is T1, CYP1A2 (Homo sapiens, UniProt P05177).
T1 construct: from tissue; host or cells: human liver microsomes
T1 sequence (P05177 1-516): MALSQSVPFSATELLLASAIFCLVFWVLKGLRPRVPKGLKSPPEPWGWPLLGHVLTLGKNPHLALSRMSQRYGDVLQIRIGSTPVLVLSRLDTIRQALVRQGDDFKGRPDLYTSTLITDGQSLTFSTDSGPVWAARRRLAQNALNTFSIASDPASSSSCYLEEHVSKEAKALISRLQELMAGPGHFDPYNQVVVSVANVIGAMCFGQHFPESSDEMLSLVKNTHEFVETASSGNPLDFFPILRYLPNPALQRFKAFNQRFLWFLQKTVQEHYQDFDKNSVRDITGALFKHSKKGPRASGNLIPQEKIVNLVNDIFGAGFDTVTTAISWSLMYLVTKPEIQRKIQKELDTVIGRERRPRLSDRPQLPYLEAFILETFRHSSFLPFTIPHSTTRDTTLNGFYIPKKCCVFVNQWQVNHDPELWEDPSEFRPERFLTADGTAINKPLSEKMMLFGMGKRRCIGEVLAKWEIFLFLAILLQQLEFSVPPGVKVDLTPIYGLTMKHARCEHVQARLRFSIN
Kind of assay: CYP inhibition assay, human liver microsomes, substrate tacrine. It is filed as in vitro ADME. Particulars: human liver microsomes, 10 min incubation, LC-MS/MS; read-out: CYP Inhibition Activity (IC50/nM) CYP1A2. How it is done: (§1) 2 μL of test compound/Positive Inhibitor working solutions is then added to the reaction plate (2 μL/well). For control, 2 μL of Acetonitrile (ACN) containing DMSO (without inhibitor) is added to the reaction plate. 20 μL of substrate pool is added to all the wells of the reaction plate. The samples are mixed in a vortexer and pre-incubated at 37° C. for 20 min. The NADPH solution is pre-warmed at 37° C. for 5 min. 20 μL of pre-warmed NADPH solution is added to the reaction plate and then incubated at 37° C. for 10 min. The reaction is terminated by adding cold ACN (200 μL/well) to the reaction mixture and centrifuging at 4,000 rpm for 20 minutes. After centrifugation, supernatant is separated and analyzed by LC-MS/MS.
(§2) % inhibition and IC50 are calculated using Graphpad Prism software.
(In general: Liver microsomes are a subcellular fraction often used to study metabolism.)

Another assay deals with T2, CYP2C9 (Homo sapiens, UniProt P11712).
T2 construct: from tissue; host or cells: human liver microsomes
Briefly: CYP inhibition assay, human liver microsomes, substrate diclofenac. Type of assay: in vitro ADME. The settings on record: human liver microsomes, 10 min incubation, LC-MS/MS; read-out: CYP Inhibition Activity (IC50/nM) CYP2C9. As for the experimental part: as §1, §2

Another assay addresses T3, CYP2C19 (Homo sapiens, UniProt P33261).
T3 construct: from tissue; host or cells: human liver microsomes
Kind of assay: CYP inhibition assay, human liver microsomes, substrate S-mephenytoin. The settings on record: human liver microsomes, 10 min incubation, LC-MS/MS; read-out: CYP Inhibition Activity (IC50/nM) CYP2C19. Type of assay: in vitro ADME. As for the experimental part: as §1, §2

For the next assay, the target named is T4, CYP2D6 (Homo sapiens, UniProt P10635).
T4 construct: from tissue; host or cells: human liver microsomes
Kind of assay: biochemical. Type of assay: in vitro ADME. As for the experimental part: 158 μL of Human Liver Microsomes working stock solution is added to a reaction plate (0.253 mg/mL, 158 μL/well). 2 μL of test compound/Positive Inhibitor working solutions is then added to the reaction plate (2 μL/well). For control, 2 μL of Acetonitrile (ACN) containing DMSO (without inhibitor) is added to the reaction plate. 20 μL of substrate pool is added to all the wells of the reaction plate. The samples are mixed in a vortexer and pre-incubated at 37° C. for 20 min. The NADPH solution is pre-warmed at 37° C. for 5 min. 20 μL of pre-warmed NADPH solution is added to the reaction plate and then incubated at 37° C. for 10 min. The reaction is terminated by adding cold ACN (200 μL/well) to the reaction mixture and centrifuging at 4,000 rpm for 20 minutes. After centrifugation, supernatant is separated and analyzed by LC-MS/MS.
as §2

Another assay has as its target T5, CYP3A4 (Homo sapiens, UniProt P08684).
T5 construct: from tissue; host or cells: human liver microsomes
Kind of assay: CYP inhibition assay, human liver microsomes, substrate midazolam. It is filed as in vitro ADME. Particulars: human liver microsomes, 10 min incubation, LC-MS/MS; read-out: CYP Inhibition Activity (IC50/nM) CYP3A4. How it is done: as §1, §2

Where only a bound is given, the exact number is not on record here.

T4 sequence (P10635 whole entry): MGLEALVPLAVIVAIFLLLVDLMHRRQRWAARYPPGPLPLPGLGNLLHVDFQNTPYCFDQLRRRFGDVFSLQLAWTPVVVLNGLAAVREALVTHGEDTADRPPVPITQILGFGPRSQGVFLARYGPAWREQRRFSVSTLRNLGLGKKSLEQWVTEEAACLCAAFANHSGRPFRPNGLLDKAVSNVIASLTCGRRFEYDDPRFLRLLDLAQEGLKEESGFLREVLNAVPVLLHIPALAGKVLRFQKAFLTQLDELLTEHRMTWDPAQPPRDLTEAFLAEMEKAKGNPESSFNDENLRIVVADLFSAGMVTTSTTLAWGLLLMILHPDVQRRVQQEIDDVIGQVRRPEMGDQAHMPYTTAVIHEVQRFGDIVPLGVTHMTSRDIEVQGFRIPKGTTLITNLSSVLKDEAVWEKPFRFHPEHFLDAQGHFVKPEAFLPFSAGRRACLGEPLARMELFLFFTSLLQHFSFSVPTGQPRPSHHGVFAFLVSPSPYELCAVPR
T5 sequence (P08684 whole entry): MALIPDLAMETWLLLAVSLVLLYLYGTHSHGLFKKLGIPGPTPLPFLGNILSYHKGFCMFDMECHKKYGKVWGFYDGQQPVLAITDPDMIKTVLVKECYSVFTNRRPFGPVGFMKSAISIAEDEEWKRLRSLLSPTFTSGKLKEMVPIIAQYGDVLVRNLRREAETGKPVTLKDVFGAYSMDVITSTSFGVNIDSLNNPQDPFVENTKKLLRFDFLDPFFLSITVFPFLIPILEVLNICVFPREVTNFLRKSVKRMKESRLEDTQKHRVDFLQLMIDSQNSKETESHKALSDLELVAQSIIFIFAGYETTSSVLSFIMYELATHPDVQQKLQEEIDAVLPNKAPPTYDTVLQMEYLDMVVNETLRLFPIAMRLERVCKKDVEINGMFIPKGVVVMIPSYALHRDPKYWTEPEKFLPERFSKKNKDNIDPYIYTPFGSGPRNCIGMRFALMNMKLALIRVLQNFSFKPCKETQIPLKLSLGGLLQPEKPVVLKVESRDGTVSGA
Sequence of SRPK1 (Q96SB4 whole entry, species assumed): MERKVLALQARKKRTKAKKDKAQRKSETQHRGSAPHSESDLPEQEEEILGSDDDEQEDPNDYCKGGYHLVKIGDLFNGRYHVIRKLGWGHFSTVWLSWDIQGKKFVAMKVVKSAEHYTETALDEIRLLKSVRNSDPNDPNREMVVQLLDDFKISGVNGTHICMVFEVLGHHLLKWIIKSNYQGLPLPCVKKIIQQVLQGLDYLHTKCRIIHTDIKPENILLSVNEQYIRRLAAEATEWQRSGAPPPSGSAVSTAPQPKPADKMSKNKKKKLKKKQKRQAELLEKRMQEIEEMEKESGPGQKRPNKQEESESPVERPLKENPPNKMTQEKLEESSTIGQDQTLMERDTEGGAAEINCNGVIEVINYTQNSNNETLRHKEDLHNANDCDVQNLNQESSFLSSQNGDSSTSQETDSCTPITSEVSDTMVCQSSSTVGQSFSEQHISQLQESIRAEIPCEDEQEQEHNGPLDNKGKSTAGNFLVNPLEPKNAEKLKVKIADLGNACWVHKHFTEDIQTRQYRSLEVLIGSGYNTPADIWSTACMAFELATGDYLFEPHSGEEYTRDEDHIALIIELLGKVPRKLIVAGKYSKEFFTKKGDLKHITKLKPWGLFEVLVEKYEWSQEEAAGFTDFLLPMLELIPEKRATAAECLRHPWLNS
T3 sequence (P33261 whole entry): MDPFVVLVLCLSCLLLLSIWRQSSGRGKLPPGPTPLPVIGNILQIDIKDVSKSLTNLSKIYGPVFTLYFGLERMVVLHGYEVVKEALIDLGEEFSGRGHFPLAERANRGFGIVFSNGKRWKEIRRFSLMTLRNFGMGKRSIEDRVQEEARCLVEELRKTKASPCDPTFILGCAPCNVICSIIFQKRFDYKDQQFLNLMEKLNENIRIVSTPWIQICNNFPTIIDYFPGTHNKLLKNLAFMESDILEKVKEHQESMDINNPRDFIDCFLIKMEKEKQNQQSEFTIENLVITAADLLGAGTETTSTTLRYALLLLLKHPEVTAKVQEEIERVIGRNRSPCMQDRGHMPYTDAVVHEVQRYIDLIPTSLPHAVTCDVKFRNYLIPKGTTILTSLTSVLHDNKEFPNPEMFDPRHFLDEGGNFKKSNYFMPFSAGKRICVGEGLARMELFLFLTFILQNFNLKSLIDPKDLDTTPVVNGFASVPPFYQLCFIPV
T2 sequence (P11712 whole entry): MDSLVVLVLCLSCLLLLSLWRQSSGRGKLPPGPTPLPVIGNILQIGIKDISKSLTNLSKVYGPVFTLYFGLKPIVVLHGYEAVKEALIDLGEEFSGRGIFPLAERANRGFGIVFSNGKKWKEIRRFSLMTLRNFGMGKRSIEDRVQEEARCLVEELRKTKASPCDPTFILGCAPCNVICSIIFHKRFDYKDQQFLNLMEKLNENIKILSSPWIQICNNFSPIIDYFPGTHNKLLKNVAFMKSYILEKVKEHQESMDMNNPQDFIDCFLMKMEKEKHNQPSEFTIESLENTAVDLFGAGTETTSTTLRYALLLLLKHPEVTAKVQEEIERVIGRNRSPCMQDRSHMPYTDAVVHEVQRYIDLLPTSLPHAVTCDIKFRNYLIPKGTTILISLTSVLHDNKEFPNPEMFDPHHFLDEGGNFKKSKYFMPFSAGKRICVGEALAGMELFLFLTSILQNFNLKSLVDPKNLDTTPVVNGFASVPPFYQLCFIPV

For `O=C(Nc1cc(C(F)(F)F)ccc1N1CCC(O)(CC2CC2)CC1)c1ccc(C2CCOCC2)o1` [Example 23, N-(2-(4-(cyclopropylmethyl)-4-hydroxypiperidin-1-yl)-5-(trifluoromethyl)phenyl)-5-(tetrahydro-2H-pyran-4-yl)furan-2-carboxamide], the IC50 was determined as 64 nM at SRPK1; 2510 nM on CYP1A2; 220 nM on CYP2C9; 260 nM on CYP2C19; 0.03 µM against CYP2D6; 2650 nM at CYP3A4.

Regarding `Cc1ccc(N2CCC(C)(O)CC2)c(NC(=O)c2ccc(-c3ccncc3)o2)c1` [Example 8, N-(2-(4-hydroxy-4-methylpiperidin-1-yl)-5-methylphenyl)-5-(pyridin-4-yl)furan-2-carboxamide], the IC50 against SRPK1 was 14.4 nM; at CYP1A2, 11100 nM; at CYP2C9, 1100 nM; at CYP2C19 it was 2900 nM; against CYP2D6, 6.1 µM; at CYP3A4 it was 1700 nM.

For `CC1(C)CCN(c2ccc(C(F)(F)F)cc2NC(=O)c2ccc(C3CCOCC3)o2)CC1` [Example 29, N-(2-(4,4-dimethylpiperidin-1-yl)-5-(trifluoromethyl)phenyl)-5-(tetrahydro-2H-pyran-4-yl)furan-2-carboxamide], the IC50 on SRPK1 was 6 nM; at CYP1A2 it was over 30000 nM; at CYP2C9 it was over 30000 nM; at CYP2C19, over 30000 nM; against CYP2D6, over 30 µM; at CYP3A4, over 30000 nM.

As to `CC1(CN2CCCCC2)CCN(c2ccc(C(F)(F)F)cc2NC(=O)c2ccc(C3CCOCC3)o2)CC1` [Example 96, N-(2-(4-methyl-4-(piperidin-1-ylmethyl)piperidin-1-yl)-5-(trifluoromethyl)phenyl)-5-(tetrahydro-2H-pyran-4-yl)furan-2-carboxamide], the IC50 is 49 nM at SRPK1; over 30000 nM at CYP1A2; 17800 nM at CYP2C9; over 30000 nM on CYP2C19; 0.2 µM against CYP2D6; 7700 nM on CYP3A4.

Consider `CC1(O)CCN(c2ccc(Cl)cc2NC(=O)c2ccccn2)CC1` [Example 2, N-(5-chloro-2-(4-hydroxy-4-methylpiperidin-1-yl)-phenyl)picolinamide], for which the IC50 on SRPK1 is 25 nM; at CYP1A2 it was 5890 nM; on CYP2C9, 13500 nM; on CYP2C19 it was 18200 nM; against CYP2D6 it was over 30 µM; on CYP3A4, 10000 nM.

For `CC1(O)CCN(c2ccc(C(F)(F)F)cc2NC(=O)c2ccc(-c3ccncc3)o2)C1` (racemic) [Example 55, N-(2-(3-hydroxy-3-methylpyrrolidin-1-yl)-5-(trifluoromethyl)-phenyl)-5-(pyridin-4-yl)furan-2-carboxamide], the IC50 on SRPK1 was 26 nM; on CYP1A2, 13000 nM; on CYP2C9, over 30000 nM; on CYP2C19, 22900 nM; against CYP2D6 it was over 30 µM; at CYP3A4, over 30000 nM.

In the case of `CC1(N)CCN(c2ccc(C(F)(F)F)cc2NC(=O)c2ccc(C3CCOCC3)o2)CC1` [Example 101, N-(2-(4-amino-4-methylpiperidin-1-yl)-5-(trifluoromethyl)-phenyl)-5-(tetrahydro-2H-pyran-4-yl)furan-2-carboxamide], the IC50 was 15.1 nM against SRPK1; over 30000 nM at CYP1A2; over 30000 nM on CYP2C9; over 30000 nM on CYP2C19; 4.8 µM against CYP2D6; over 30000 nM on CYP3A4.

Consider `CC1(C(=O)O)CCN(c2ccc(C(F)(F)F)cc2NC(=O)c2ccc(C3CCOCC3)o2)CC1` [Example 27, 4-methyl-1-(2-(5-(tetrahydro-2H-pyran-4-yl)furan-2-carboxamido)-4-(trifluoromethyl)phenyl)-piperidine-4-carboxylic acid], for which the IC50 on SRPK1 was 3.6 nM; at CYP1A2, over 30000 nM; on CYP2C9, 12600 nM; at CYP2C19 it was over 30000 nM; against CYP2D6, over 30 µM; at CYP3A4, over 30000 nM.
